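Values below derive from 48-hour exposures of cells grown in 96-well plates, with endpoints linearly interpolated between the two concentrations bracketing the appropriate inhibition level. TGI: concentration producing complete growth inhibition.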
Experiments:
Assay in all cases: DTP human tumour cell line panel, 48 h
A549 NSCLC = tested on: A549 NSCLC
HCC-2998 colon = tested on: HCC-2998 colon
HCT-15 colon = tested on: HCT-15 colon
M14 melanoma = tested on: M14 melanoma
MOLT-4 leukemia = tested on: MOLT-4 leukemia
OVCAR-4 ovarian = tested on: OVCAR-4 ovarian
SK-MEL-5 melanoma = tested on: SK-MEL-5 melanoma
A498 renal = tested on: A498 renal
MDA-N = tested on: MDA-N

SMILES | TGI (A549 NSCLC) [µM] | TGI (HCC-2998 colon) [µM] | TGI (HCT-15 colon) [µM] | TGI (M14 melanoma) [µM] | TGI (MOLT-4 leukemia) [µM] | TGI (OVCAR-4 ovarian) [µM] | TGI (SK-MEL-5 melanoma) [µM] | TGI (A498 renal) [µM] | TGI (MDA-N) [µM]
O=C1NC(O)c2cc3ccccc3cc2O1 (centres undefined) | > 100 | > 100 | > 100 | > 100 | > 100 | > 100 | > 100 | – | –
O=C(O)CSC(CC(=O)c1ccc(Cl)cc1)c1ccc(Cl)cc1 (centres undefined) | > 100 | – | > 100 | > 100 | 27 | > 100 | > 100 | > 100 | > 100
Oc1ccc(C(O)C2CCCCN2)cc1O (centres undefined) | > 100 | – | > 100 | > 100 | – | > 100 | > 100 | > 100 | > 100
COc1cc2c(/C=C3/C(=O)Nc4ccccc43)c(Cl)n(Cc3ccc(Cl)cc3)c2cc1C | 10.6 | 0.432 | 0.969 | 1.75 | 0.627 | 18.6 | 1.62 | 3.4 | –
ClC1=NN=C(c2c[nH]c3ccccc23)CC1NCc1ccccc1 (centres undefined) | > 100 | – | > 100 | > 100 | > 100 | – | > 100 | > 100 | > 100
CCOC(=O)c1c(-c2ccc(OC)cc2)ccn1C | > 10 | > 10 | > 10 | > 10 | > 10 | > 10 | > 10 | – | –
CC(=O)n1[nH]c(=O)n(-c2ccc(Cl)cc2)c1=O | > 100 | > 100 | > 100 | > 100 | > 100 | > 100 | > 100 | – | > 100
CCc1nc(N)c2nc(-c3cccs3)oc2n1 | > 100 | > 100 | > 100 | > 100 | > 100 | – | > 100 | – | > 100
O=c1c2cc(Br)cc(Br)c2[nH]c(=S)n1-c1ccc(N=Nc2ccc(O)c3cccnc23)cc1 | > 100 | – | – | > 100 | > 100 | > 100 | 29 | > 100 | > 100
C=C1CCC[C@@H](C)C(O)[C@@H]2OC(=O)C(=C)[C@@H]2C[C@@H](OC(C)=O)[C@@]2(C)CC[C@@H]1O2 (some centres undefined) | > 50 | 14.9 | 10.6 | 13.6 | 15.4 | 36.7 | 13.7 | 19.2 | –
